Measured values published in US20240158446A1, “CYCLIC COMPOUND HAVING SELECTIVE INHIBITORY ACTION ON KRAS OVER HRAS AND NRAS” (CHUGAI SEIYAKU KABUSHIKI KAISHA, priority 2021, published 2024).
Like-named read-outs stand apart in the source and are kept apart here. *1 amine or outer side, *2 acyl side, *3 side chain or, on linkers, in order; H or OH if unused. Where a SMILES comes first, the peptide text is derived from it. Bridges are numbered along the chain shown (N, C = ends). [ ]: non-standard residue; d: D form. The star is where a group is joined. hPhe(3-Cl-4-CF3) = N[C@@H](CCc1ccc(C(F)(F)F)c(Cl)c1)C(=O)O; NPrPhe(4-CF3) = CCCN[C@@H](Cc1ccc(C(F)(F)F)cc1)C(=O)O; X21 = Cc1ccc(C[C@@H](C(=O)[*:2])N(CC2CC2)[*:1])cc1; NMeGly(cPent) = CN[C@H](C(=O)O)C1CCCC1; Pro(4,4-F2) = O=C(O)[C@@H]1CC(F)(F)CN1; Pro(4S-Me) = C[C@@H]1CN[C@H](C(=O)O)C1; Hyp = O=C(O)[C@@H]1C[C@@H](O)CN1; NMeD = CN[C@@H](CC(=O)O)C(=O)O; NMeL = CN[C@@H](CC(C)C)C(=O)O; Morpholide = C1CN(*)CCO1; NMeA = CN[C@@H](C)C(=O)O; Ac5c = NC1(C(=O)O)CCCC1; Aze = O=C(O)[C@@H]1CCN1; Ac4c = NC1(C(=O)O)CCC1; NEtG = CCNCC(=O)O; Sar = CNCC(=O)O

How the values were obtained:
[1] = target: GDP-bound KRAS wild-type protein (Homo sapiens, UniProt P01116); experiment: Binding to KRAS by surface plasmon resonance (SPR), Single Cycle Kinetics; settings: GDP-bound KRAS wild-type protein, read-out: KRAS KD
Sequence of GDP-bound KRAS wild-type protein (P01116 whole entry): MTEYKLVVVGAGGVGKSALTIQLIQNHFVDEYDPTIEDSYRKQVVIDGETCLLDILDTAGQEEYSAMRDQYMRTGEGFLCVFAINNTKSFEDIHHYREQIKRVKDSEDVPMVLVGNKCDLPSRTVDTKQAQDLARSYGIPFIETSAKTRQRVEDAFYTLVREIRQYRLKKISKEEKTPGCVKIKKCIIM

[2] = target: GDP-bound NRAS wild-type protein (Homo sapiens, UniProt P01111); experiment: Binding to NRAS by surface plasmon resonance (SPR), Single Cycle Kinetics; settings: for NRAS/KRAS (ratio of KD value for NRAS to KD value for KRAS) / NRAS/KRAS (ratio of KD value with respect to NRAS to KD value with respect to KRAS): SPR, GDP-bound NRAS wild-type protein vs GDP-bound KRAS wild-type protein
Sequence of GDP-bound NRAS wild-type protein (P01111 whole entry): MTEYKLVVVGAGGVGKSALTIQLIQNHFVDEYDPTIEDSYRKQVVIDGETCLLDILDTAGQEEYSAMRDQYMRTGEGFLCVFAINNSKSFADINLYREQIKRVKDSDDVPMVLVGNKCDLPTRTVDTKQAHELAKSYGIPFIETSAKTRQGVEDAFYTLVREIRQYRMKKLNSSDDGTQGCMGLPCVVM

[3] = target: GDP-bound HRAS wild-type protein (Homo sapiens, UniProt P01112); experiment: Binding to HRAS by surface plasmon resonance (SPR), Single Cycle Kinetics; settings: for HRAS/KRAS (ratio of KD value for HRAS to KD value for KRAS) / HRAS/KRAS (ratio of KD value with respect to HRAS to KD value with respect to KRAS): SPR, GDP-bound HRAS wild-type protein vs GDP-bound KRAS wild-type protein
Sequence of GDP-bound HRAS wild-type protein (P01112 whole entry): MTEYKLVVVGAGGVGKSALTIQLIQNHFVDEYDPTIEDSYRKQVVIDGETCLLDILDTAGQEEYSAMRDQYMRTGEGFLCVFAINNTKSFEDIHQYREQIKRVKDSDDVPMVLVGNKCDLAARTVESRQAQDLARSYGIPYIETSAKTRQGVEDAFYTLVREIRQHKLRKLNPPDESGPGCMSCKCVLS

[4] = SPR Single Cycle Kinetics, 1:1 binding model

SMILES	Kd [1, 4]	NRAS/KRAS (ratio of KD value for NRAS to KD value for KRAS) [2]	HRAS/KRAS (ratio of KD value for HRAS to KD value for KRAS) [3]	also measured
CCCN1C(=O)[C@@H]2CCN2C(=O)[C@H](C)N(C)C(=O)[C@H]([C@@H](C)CC)NC(=O)[C@H](CC(C)C)N(C)C(=O)C[C@@H](C(=O)N2CCOCC2)N(C)C(=O)[C@H](C2CCCC2)N(C)C(=O)C2(CCCC2)NC(=O)[C@@H]2CC(F)(F)CN2C(=O)[C@H](CCc2ccc(C(F)(F)F)c(Cl)c2)NC(=O)CN(C)C(=O)[C@@H]1Cc1ccc(C(F)(F)F)cc1 [PP0196] ([NMeL]I[NMeA][Aze][NPrPhe(4-CF3)][Sar][hPhe(3-Cl-4-CF3)][Pro(4,4-F2)][Ac5c][NMeGly(cPent)][NMeD]-Morpholide; lactam N-11)	0.15 nM	C (A compound having a KD ratio of 0.1 or more and less than 3 is denoted as C)	C (A compound having a KD ratio of 0.1 or more and less than 3 is denoted as C)	
CC[C@H](C)[C@@H]1NC(=O)[C@H](CC2CC2)N(C)C(=O)C[C@@H](C(=O)N(C)C)N(C)C(=O)[C@H](C2CCCC2)N(C)C(=O)C2(CCC2)NC(=O)[C@@H]2C[C@H](C)CN2C(=O)[C@H](CCc2cc(F)c(C(F)(F)F)c(F)c2)NC(=O)CN(C)C(=O)[C@H](Cc2ccc(C(F)(F)F)cc2)N2CC/C=C\C[C@@H](C2=O)N(C)C(=O)CN(C)C1=O [PP1499, (2S,8S,12S,14S,20S,23S,27S,30S,36S,38Z)-20-cyclopentyl-27-(cyclopropylmethyl)-8-[2-[3,5-difluoro-4-(trifluoromethyl)phenyl]ethyl]-N,N,4,12,19,22,26,32,35-nonamethyl-30-[(1S)-1-methylpropyl]-3,6,9,15,18,21,25,28,31,34,42-undecaoxo-2-[[4-(trifluoromethyl)phenyl]methyl]spiro[1,4,7,10,16,19,22,26,29,32,35-undecazatricyclo[34.5.1.0^10,14]dotetracont-38-ene-17,1′-cyclobutane]-23-carboxamide]				Kd ([1]; SPR, Single Cycle Kinetics, 1:1 binding model): 0.054 nM; NRAS/KRAS (ratio of KD value for NRAS to KD value for KRAS) ([2]; KD ratio class): A (a compound having 10 or more and less than 20 is denoted as A); HRAS/KRAS (ratio of KD value for HRAS to KD value for KRAS) ([3]; KD ratio class): B (a compound having 3 or more and less than 10 is denoted as B)
CCCN1C(=O)CN(C)C(=O)CN(C)C(=O)[C@H]([C@@H](C)CC)NC(=O)[C@H](CC(C)C)N(C)C(=O)C[C@@H](C(=O)N2CCOCC2)NC(=O)[C@H](C2CCCC2)N(C)C(=O)C2(CCC2)NC(=O)[C@@H]2CCCN2C(=O)[C@H](CCc2ccc(C(F)(F)F)c(Cl)c2)NC(=O)CN(C)C(=O)[C@@H]1Cc1ccc(C(F)(F)F)cc1 [PP0320] ([NMeL]I[Sar][Sar][NPrPhe(4-CF3)][Sar][hPhe(3-Cl-4-CF3)]P[Ac4c][NMeGly(cPent)]D-Morpholide; lactam N-11)	0.9 nM	B (a compound having 3 or more and less than 10 is denoted as B)	B (a compound having 3 or more and less than 10 is denoted as B)	
CCO[C@@H]1C[C@H]2C(=O)NC3(CCC3)C(=O)N(C)[C@@H](C3CCCC3)C(=O)N(C)[C@H](C(=O)N(C)C)CC(=O)N(C)[C@@H](CC3CCC3)C(=O)N[C@@H]([C@@H](C)CC)C(=O)N(C)CC(=O)N(C)[C@H]3CCCCN(C3=O)[C@@H](Cc3ccc(C(F)(F)F)cc3)C(=O)N(C)CC(=O)N[C@@H](CCc3cc(F)c(C(F)(F)F)c(F)c3)C(=O)N2C1 [PP0698]	0.015 nM			NRAS/KRAS (ratio of KD value with respect to NRAS to KD value with respect to KRAS) [2]: C (A compound having a KD ratio of 0.1 or more and less than 3 is denoted as C); HRAS/KRAS (ratio of KD value with respect to HRAS to KD value with respect to KRAS) [3]: C (A compound having a KD ratio of 0.1 or more and less than 3 is denoted as C)
CCCN1C(=O)CN(C)C(=O)CN(CC)C(=O)[C@H]([C@@H](C)CC)NC(=O)[C@H](CC(C)C)N(C)C(=O)C[C@@H](C(=O)N2CCOCC2)N(C)C(=O)[C@H](C2CCCC2)N(C)C(=O)C2(CCCC2)NC(=O)[C@@H]2CC(F)(F)CN2C(=O)[C@H](CCc2ccc(C(F)(F)F)c(Cl)c2)NC(=O)CN(C)C(=O)[C@@H]1Cc1ccc(C(F)(F)F)cc1 [PP0399] ([NMeL]I[NEtG][Sar][NPrPhe(4-CF3)][Sar][hPhe(3-Cl-4-CF3)][Pro(4,4-F2)][Ac5c][NMeGly(cPent)][NMeD]-Morpholide; lactam N-11)	0.33 nM	B (a compound having 3 or more and less than 10 is denoted as B)	C (A compound having a KD ratio of 0.1 or more and less than 3 is denoted as C)	
CCC(CC)[C@H]1C(=O)N(C)[C@H](C(=O)N2CCCC2)CC(=O)N(C)[C@H]2CCC/C=C/c3ccc(cc3)C[C@@H](C(=O)N(C)CC(=O)N[C@@H](CCc3ccc(Cl)c(Cl)c3)C(=O)N3CCC[C@H]3C(=O)NC3(CC(C)(C)C3)C(=O)N1C)N1CC/C=C\C[C@@H](C1=O)N(C)C(=O)CN(C)C(=O)[C@H]([C@@H](C)CC)NC2=O [PP2604]	0.4 nM			NRAS/KRAS (ratio of KD value with respect to GDP-bound NRAS wild-type protein to KD value with respect to KRAS) ([2]; SPR KD ratio NRAS/KRAS, class symbols): AA (a compound having 20 or more is denoted as AA); HRAS/KRAS (ratio of KD value with respect to GDP-bound HRAS wild-type protein to KD value with respect to KRAS) ([3]; SPR KD ratio HRAS/KRAS, class symbols): A (a compound having 10 or more and less than 20 is denoted as A)
CCCN1C(=O)CN(C)C(=O)CN(C)C(=O)[C@H]([C@@H](C)CC)NC(=O)[C@H](CC(C)C)N(C)C(=O)C[C@@H](C(=O)N2CCOCC2)N(C)C(=O)[C@H](C2CCCC2)N(C)C(=O)C2(CCCC2)NC(=O)[C@@H]2C[C@H](C)CN2C(=O)[C@H](CCc2ccc(C(F)(F)F)c(Cl)c2)NC(=O)CN(C)C(=O)[C@@H]1Cc1ccc(C(F)(F)F)cc1 [PP0447] ([NMeL]I[Sar][Sar][NPrPhe(4-CF3)][Sar][hPhe(3-Cl-4-CF3)][Pro(4S-Me)][Ac5c][NMeGly(cPent)][NMeD]-Morpholide; lactam N-11)	0.18 nM			NRAS/KRAS (ratio of KD value with respect to NRAS to KD value with respect to KRAS) [2]: B (a compound having 3 or more and less than 10 is denoted as B); HRAS/KRAS (ratio of KD value with respect to HRAS to KD value with respect to KRAS) [3]: C (A compound having a KD ratio of 0.1 or more and less than 3 is denoted as C)
CCC[C@H]1C(=O)N[C@@H]([C@@H](C)CC)C(=O)N(C2CC2)CC(=O)N(C)[C@H]2C/C=C\CCN(C2=O)[C@@H](Cc2ccc(C(F)(F)F)cc2)C(=O)N(C)CC(=O)N[C@@H](CCc2ccc(C(F)(F)F)c(OC)c2)C(=O)N2C[C@H](OCC)C[C@H]2C(=O)NC2(CC(C)(C)C2)C(=O)N(C)[C@@H](C2CCCC2)C(=O)N(C)[C@H](C(=O)N(C)C)CC(=O)N1C [PP2105]		A (a compound having 10 or more and less than 20 is denoted as A)	A (a compound having 10 or more and less than 20 is denoted as A)	Kd ([1]; SPR, Single Cycle Kinetics): 0.18 nM
CC[C@H](C)[C@@H]1NC(=O)[C@H](COC)N(C)C(=O)C[C@@H](C(=O)N2CCOCC2)N(C)C(=O)[C@H](C2CCCC2)N(C)C(=O)C2(CCC2)NC(=O)[C@@H]2C[C@@H](OCC(C)C)CN2C(=O)[C@H](CCc2cc(F)c(C(F)(F)F)c(F)c2)NC(=O)CN(C)C(=O)[C@H](Cc2ccc(C(F)(F)F)cc2)N2CCCCC[C@@H](C2=O)N(C)C(=O)CN(C)C1=O [PP0839]		B (a compound having 3 or more and less than 10 is denoted as B)	B (a compound having 3 or more and less than 10 is denoted as B)	Kd ([1]; SPR, Single Cycle Kinetics): 1.1 nM
CCCN1C(=O)CN(C)C(=O)[C@@H]2CCN2C(=O)[C@H]([C@@H](C)CC)NC(=O)[C@H](CC(C)C)N(C)C(=O)C[C@@H](C(=O)N(C)C)N(C)C(=O)[C@H](C2CCCC2)N(C)C(=O)C2(CCCC2)NC(=O)[C@@H]2C[C@@H](OCC)CN2C(=O)[C@H](CCc2ccc(C(F)(F)F)c(Cl)c2)NC(=O)CN(C)C(=O)[C@@H]1Cc1ccc(C(F)(F)F)cc1 [PP0433] ([NMeL]I[Aze][Sar][NPrPhe(4-CF3)][Sar][hPhe(3-Cl-4-CF3)][Hyp](Et)[Ac5c][NMeGly(cPent)][NMeD]-NMe2; lactam N-11)	0.15 nM			NRAS/KRAS (ratio of KD value with respect to NRAS to KD value with respect to KRAS) [2]: B (a compound having 3 or more and less than 10 is denoted as B); HRAS/KRAS (ratio of KD value with respect to HRAS to KD value with respect to KRAS) [3]: B (a compound having 3 or more and less than 10 is denoted as B)
CCCN1C(=O)CN(C)C(=O)CN(C)C(=O)[C@H]([C@@H](C)CC)NC(=O)[C@@H]2CCCCCCOc3ccc(cc3)C[C@H]1C(=O)N(C)CC(=O)N[C@@H](CCc1cc(F)c(C(F)(F)F)c(F)c1)C(=O)N1C[C@H](OCC)C[C@H]1C(=O)NC1(CCCC1)C(=O)N(C)[C@@H](C1CCCC1)C(=O)N(C)[C@H](C(=O)N(C)C)CC(=O)N2C [PP0896]		C (A compound having a KD ratio of 0.1 or more and less than 3 is denoted as C)	C (A compound having a KD ratio of 0.1 or more and less than 3 is denoted as C)	Kd ([1]; SPR, Single Cycle Kinetics): 0.018 nM
CC[C@H](C)[C@@H]1NC(=O)[C@H](CC(C)C)N(C)C(=O)C[C@@H](C(=O)N2CCOCC2)N(C)C(=O)[C@H](C2CCCC2)N(C)C(=O)C2(CCCC2)NC(=O)[C@@H]2CCCN2C(=O)[C@H](CCc2ccc(C(F)(F)F)c(Cl)c2)NC(=O)CN(C)C(=O)[C@H](Cc2ccc(C)cc2)N(CC2CC2)C(=O)CN(C)C(=O)CN(C)C1=O [PP0064] ([NMeL]I[Sar][Sar][X21][Sar][hPhe(3-Cl-4-CF3)]P[Ac5c][NMeGly(cPent)][NMeD]-Morpholide; lactam N-11)	0.42 nM	C (A compound having a KD ratio of 0.1 or more and less than 3 is denoted as C)	C (A compound having a KD ratio of 0.1 or more and less than 3 is denoted as C)	
